Data set [1] concerns Voltage-dependent L-type calcium channel (Cavia porcellus). As to the kind of experiment: Bmax1 from dihydropyridine receptor binding assay in guinea pig myocardial membranes.
Data set [2] deals with Voltage-dependent L-type calcium channel (Cavia porcellus). As to the kind of experiment: Dissociation constant for inhibition of [3H]nitrendipine binding to guinea pig myocardial membranes. The note with it: read-out: Kd2.
The species named for a further data set is Oryctolagus cuniculus. As to the kind of experiment: Compound was tested for ability to relax potassium-contracted rabbit aorta smooth muscle. It is filed as functional.
Data set [3] addresses Voltage-dependent L-type calcium channel (Cavia porcellus). As to the kind of experiment: Dissociation constant for inhibition of [3H]nitrendipine binding to guinea pig myocardial membranes. The note with it: read-out: Kd1.
Data set [4] concerns Voltage-dependent L-type calcium channel (Cavia porcellus). The data set is described as follows: Bmax2 from dihydropyridine receptor binding assay in guinea pig myocardial membranes.
In data set [5] the target is Voltage-dependent L-type calcium channel (Cavia porcellus). The data set is described as follows: Dissociation constant for inhibition of [3H]nitrendipine binding to guinea pig myocardial membranes. The note with it: read-out: Kd2. This is another data set of the same source.

Structures are written as SMILES.

With `COC(=O)C1=C(C)N=C(C)/C(=C(\O)OC)C1c1ccc([N+](=O)[O-])cc1Cl` (stereo unspecified), in data set [1], the Bmax1 is 8%. Moreover, the values for the Kd in data set [2] and in data set [3] were 107 nM and 1.25 nM, respectively. Moreover, the half-inhibitory concentration (IC50) (usually the concentration at which inhibition is half-maximal) in the data set listed under Oryctolagus cuniculus amounted to 185 nM. Also, the Bmax2 in data set [4] was determined as 92%.
Regarding `COC(=O)C1=C(C)N=C(C)/C(=C(\O)OC)C1c1ccccc1Cl` (stereo unspecified), the Bmax1 in data set [1] was 21%. The Kd in data set [5] is 1 nM; in data set [3] it was 0.006 nM. In the data set listed under Oryctolagus cuniculus, this compound registered an IC50 of 3 nM. Besides, the Bmax2 in data set [4] is 79%.
The like results for `COC(=O)C1=C(C)N=C(C)/C(=C(\O)OC)C1c1cc([N+](=O)[O-])ccc1Cl` (stereo unspecified) were, in that order, 49%, 74.4 nM, 0.95 nM, 13.6 nM and 51%.
The like results for `COC(=O)C1=C(C)N=C(C)/C(=C(\O)OC)C1c1cccc([N+](=O)[O-])c1Cl` (stereo unspecified) were, in that order, 79%, 85 nM, 0.23 nM, 1 nM and 21%.
In the case of `COC(=O)C1=C(C)NC(C)=C(C(=O)OC)C1c1ccccc1[N+](=O)[O-]` [NIFEDIPINE], the IC50 in the data set listed under Oryctolagus cuniculus was found to be 0.5 nM. In other words, the sub-nanomolar range.
With `COC(=O)C1=C(C)N=C(C)/C(=C(\O)OC)C1c1cccc(C#N)c1` (stereo unspecified), the Bmax1 in data set [1] was 83%. For the same compound, the results for the Kd in data set [5] and in data set [3] were 152 nM and 2.15 nM, respectively. Moreover, in the data set filed under Oryctolagus cuniculus, the IC50 was found to be 11.1 nM. Moreover, the Bmax2 in data set [4] came to 17%.
